Measured values reported in patent EP0582261A1, “Cephalosporin compounds and processes for the preparation thereof” (LUCKY LTD., priority 1992, dated 1994).

Columns and labels:
Assay in all cases: MIC, two-fold dilution method on Müller-Hinton agar
Type in all cases: cell-based
Settings in all cases: incubated at 37°C for 20 hours
[1] = test system: Pseudomonas aeruginosa ATCC 25619
Experimental: (§1) The same procedures as described in Example 163 were repeated using 7-amino-1,8-dimethyl[1,3]imidazo[1,2-c] pyrimidine-5-thione prepared in Preparation Example 36 in place of 7-amino-1-methyl[1,3]imidazo[1,2-c]pyrimidine-5-thione to yield 190mg and 180mg of the title compound(a) and (b), respectively, as white solids.
(§2) These MIC values were taken by employing a two-fold dilution method: that is, two-fold serial dilutions of each of the test compounds were made and dispersed in a Müller-Hinton agar medium; 2µl of the standard test strain which had the 10⁷ CFU(Colony Forming Unit) per ml was inoculated on the medium; and these were incubated at 37°C for 20 hours.

[2] = test system: Enterobacter cloacae ATCC 27508
Experimental: as §1, §2

[3] = test system: Klebsiella pneumoniae ATCC 10031
Experimental: as §1, §2

[4] = test system: Providencia rettgeri ATCC 9250
Experimental: as §1, §2

[5] = test system: Bacillus megaterium ATCC 9885
Experimental: as §1, §2

[6] = test system: Salmonella typhimurium ATCC 14028
Experimental: as §1, §2

[7] = test system: Shigella flexneri ATCC 11836
Experimental: as §1, §2

[8] = test system: Bacillus cereus ATCC 11778
Experimental: as §1, §2

[9] = test system: Micrococcus luteus ATCC 9341
Experimental: as §1, §2

[10] = test system: Staphylococcus aureus ATCC 10537
Experimental: as §1, §2

[11] = test system: Acinetobacter calcoaceticus ATCC 15473
Experimental: as §1, §2

[12] = test system: Pseudomonas aeruginosa ATCC 27853
Experimental: as §1, §2

[13] = test system: Escherichia coli ATCC 25922
Experimental: as §1, §2

[14] = test system: Staphylococcus epidermidis ATCC 12228
Experimental: as §1, §2

[15] = test system: Escherichia coli ATCC 10536
Experimental: as §1, §2

[16] = test system: Staphylococcus aureus ATCC 6538p
Experimental: as §1, §2

[17] = test system: Proteus mirabilis ATCC 25933
Experimental: as §1, §2

[18] = test system: Pseudomonas aeruginosa ATCC 10145
Experimental: as §1, §2

[19] = test system: Morganella morganii ATCC 8076h
Experimental: as §1, §2

[20] = test system: Citrobacter freundii ATCC 8090
Experimental: as §1, §2

[21] = test system: Streptococcus faecalis ATCC 29212
Experimental: as §1, §2

[22] = test system: Proteus vulgaris ATCC 6059
Experimental: as §1, §2

[23] = test system: Serratia marcescens ATCC 27117
Experimental: as §1, §2

[24] = test system: Enterobacter aerogenes ATCC 29751
Experimental: as §1, §2

[25] = test system: Shigella sonnei ATCC 11060
Experimental: as §1, §2

Substance | MIC values against the standard strains [1] | MIC values against the standard strains [2] | MIC values against the standard strains [3] | MIC values against the standard strains [4] | MIC values against the standard strains [5] | MIC values against the standard strains [6] | MIC values against the standard strains [7] | MIC values against the standard strains [8] | MIC values against the standard strains [9] | MIC values against the standard strains [10] | MIC values against the standard strains [11] | MIC values against the standard strains [12] | MIC values against the standard strains [13] | MIC values against the standard strains [14] | MIC values against the standard strains [15] | MIC values against the standard strains [16] | MIC values against the standard strains [17] | MIC values against the standard strains [18] | MIC values against the standard strains [19] | MIC values against the standard strains [20] | other results
7-[(Z)-2-(2-aminothiazol-4-yl)-2-((R)-1-carboxyprop-1-oxyimino)acetamido]-3-(7-amino-1-methyl [1,2,4]triazolo[1,5-c]pyrimidinium-5-yl)thiomethyl-3-cephem-4-carboxylate [Exp. 86] | 1 µg/mL | ≤8 ng/mL | ≤8 ng/mL | ≤8 ng/mL | 0.031 µg/mL | 0.25 µg/mL | 0.031 µg/mL | 16 µg/mL | ≤8 ng/mL | 0.13 µg/mL | 2 µg/mL | 1 µg/mL | 0.063 µg/mL | 0.25 µg/mL | 0.13 µg/mL | 0.13 µg/mL | 0.13 µg/mL | 2 µg/mL | ≤8 ng/mL | 0.13 µg/mL | MIC values against the standard strains [21]: 16 µg/mL; MIC values against the standard strains [22]: 0.13 µg/mL; MIC values against the standard strains [23]: 0.25 µg/mL; MIC values against the standard strains [24]: 0.25 µg/mL; MIC values against the standard strains [25]: 0.063 µg/mL
7-[(Z)-2-(2-aminothiazol-4-yl)-2-((R)-1-carboxyprop-1-oxyimino)acetamido]-3-(2,7-diamino-1-methyl[1,2,4]triazolo[1,5-c]pyrimidinium-5-yl)thiomethyl-3-cephem-4-carboxylate [Exp. 88] | 0.5 µg/mL | ≤8 ng/mL | ≤8 ng/mL | ≤8 ng/mL | 0.031 µg/mL | 0.13 µg/mL | 0.031 µg/mL | 8 µg/mL | ≤8 ng/mL | 0.13 µg/mL | 1 µg/mL | 1 µg/mL | 0.063 µg/mL | 0.031 µg/mL | 0.13 µg/mL | 0.13 µg/mL | 0.13 µg/mL | 1 µg/mL | ≤8 ng/mL | 0.13 µg/mL | MIC values against the standard strains [21]: 8 µg/mL; MIC values against the standard strains [22]: 0.063 µg/mL; MIC values against the standard strains [23]: 0.25 µg/mL; MIC values against the standard strains [24]: 0.13 µg/mL; MIC values against the standard strains [25]: 0.063 µg/mL
